Key:
M4 mAChR = molecular target: T1, M4 mAChR (Homo sapiens, UniProt P08173); assay: cAMP TR-FRET assay with forskolin, M4-overexpressing CHO-K1 cells; type: cell-based
T1 construct: expressed in transfected cells; host or cells: CHO-K1
T1 sequence (P08173 1-479): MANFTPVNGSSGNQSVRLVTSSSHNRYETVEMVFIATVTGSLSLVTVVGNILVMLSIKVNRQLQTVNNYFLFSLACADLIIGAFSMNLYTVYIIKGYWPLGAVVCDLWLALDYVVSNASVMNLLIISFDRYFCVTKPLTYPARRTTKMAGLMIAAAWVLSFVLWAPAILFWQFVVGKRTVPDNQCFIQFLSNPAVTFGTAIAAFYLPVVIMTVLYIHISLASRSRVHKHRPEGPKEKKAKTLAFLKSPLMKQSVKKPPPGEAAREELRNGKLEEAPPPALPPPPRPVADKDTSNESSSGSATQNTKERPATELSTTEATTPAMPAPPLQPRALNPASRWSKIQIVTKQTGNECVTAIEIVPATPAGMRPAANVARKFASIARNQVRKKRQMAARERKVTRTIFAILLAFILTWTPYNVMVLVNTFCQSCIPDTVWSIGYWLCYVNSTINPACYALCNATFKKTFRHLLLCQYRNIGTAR
Method in brief: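 CHO-K1 cells overexpressing the receptor were stimulated with forskolin to raise cAMP, so that Gi-mediated agonist decreases could be measured. cAMP was quantified by TR-FRET competition between cellular cAMP and labelled donor for anti-cAMP antibody, giving potency and efficacy.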

[1] = molecular target: T2, M3 muscarinic acetylcholine receptor (mAChR) (Homo sapiens, UniProt P20309); assay: FLIPR calcium assay (Fluo 8), M3-overexpressing CHO-K1 cells; type: cell-based
T2 construct: expressed in transfected cells; host or cells: CHO-K1
T2 sequence (P20309 whole entry): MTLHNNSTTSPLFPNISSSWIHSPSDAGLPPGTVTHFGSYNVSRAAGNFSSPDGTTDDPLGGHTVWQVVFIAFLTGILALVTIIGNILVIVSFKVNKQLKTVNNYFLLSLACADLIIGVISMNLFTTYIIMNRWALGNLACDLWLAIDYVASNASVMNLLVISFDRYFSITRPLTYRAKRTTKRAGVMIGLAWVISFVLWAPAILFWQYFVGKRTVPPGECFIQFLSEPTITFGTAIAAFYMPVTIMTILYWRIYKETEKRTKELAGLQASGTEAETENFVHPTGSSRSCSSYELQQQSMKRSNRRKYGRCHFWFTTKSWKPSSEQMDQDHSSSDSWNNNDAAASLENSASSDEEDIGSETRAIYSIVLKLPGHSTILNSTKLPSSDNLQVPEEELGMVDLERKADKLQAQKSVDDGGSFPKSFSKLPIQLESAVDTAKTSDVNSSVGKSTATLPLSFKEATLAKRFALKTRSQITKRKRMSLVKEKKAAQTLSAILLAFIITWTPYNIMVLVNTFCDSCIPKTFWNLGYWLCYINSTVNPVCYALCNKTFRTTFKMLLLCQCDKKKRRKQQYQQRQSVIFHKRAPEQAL
Method in brief: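 CHO-K1 cells overexpressing each human receptor seeded at 15,000 per well, grown overnight at 37° C., 5% CO2, then loaded with Fluo-8 for 30 min. Compounds in HBSS added and calcium response read on FLIPR; EC50 and Emax calculated per subtype.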

Emax (M4 mAChR; cAMP TR-FRET with forskolin) [%] | EC50 ([1]; FLIPR calcium) [µM] | Emax (M4 mAChR; cAMP assay) [%] | EC50 ([1]; FLIPR) [µM] | Compound
 |  | 80 to 100 | > 10 | CCOC(=O)N1CC2(CC[C@@H](N3CCN(c4cc(F)cnc4-c4cnn5c4CCCC5)CC3)C2)C1 [Compound A160]
 |  | 80 to 100 | > 10 | CCOC(=O)N1CC2(CC[C@@H](N3CCN(c4cc(F)cnc4-c4ccc(F)nc4C)CC3)C2)C1 [Compound A161]
 |  | 80 to 100 | > 10 | CCOC(=O)N1CC2(CC[C@@H](N3CCN(c4cc(F)cnc4-c4cccc(F)c4CO)CC3)C2)C1 [Compound A162]
 |  | 80 to 100 | > 10 | CCOC(=O)N1CC2(CC[C@@H](N3CCN(c4cc(F)cnc4-c4ccnc(F)c4OC)CC3)C2)C1 [Compound A163]
 |  | 50 to 79.9 | > 10 | CCOC(=O)N1CC2(CC[C@@H](N3CCN(c4cc(F)cnc4-c4cn(C)c5ncccc45)CC3)C2)C1 [Compound A164]
 |  | 80 to 100 | > 10 | CCOC(=O)N1CC2(CC[C@@H](N3CCN(c4cc(F)cnc4-c4ccn5nccc5c4)CC3)C2)C1 [Compound A165]
 |  | 80 to 100 | > 10 | CCOC(=O)N1CC2(CC[C@@H](N3CCN(c4cc(F)cnc4-c4c(O)cccc4F)CC3)C2)C1 [Compound A167]
 |  | 80 to 100 | > 10 | CCOC(=O)N1CC2(CC[C@@H](N3CCN(c4cc(F)cnc4-c4cnn(COC)c4)CC3)C2)C1 [Compound A168]
 |  | 80 to 100 | > 10 | CCOC(=O)N1CC2(CC[C@@H](N3CCN(c4cc(F)cnc4-c4ccc(CCO)cc4)CC3)C2)C1 [Compound A169]
 |  | 80 to 100 | > 10 | CCOC(=O)N1CC2(CC[C@@H](N3CCN(c4cc(F)cnc4-c4c[nH]nc4C4CC4)CC3)C2)C1 [Compound A170]
 |  | 80 to 100 | > 10 | CCOC(=O)N1CC2(CC[C@@H](N3CCN(c4cc(F)cnc4-c4cnn(CCF)c4)CC3)C2)C1 [Compound A171]
 |  | 80 to 100 | > 10 | CCOC(=O)N1CC2(CC[C@@H](N3CCN(c4cc(F)cnc4-c4cnn(CC(F)F)c4)CC3)C2)C1 [Compound A172]
 |  | 50 to 79.9 | > 10 | CCOC(=O)N1CC2(CC[C@@H](N3CCN(c4cc(F)cnc4-c4cnn5c4OCCC5)CC3)C2)C1 [Compound A173]
 |  | 80 to 100 | > 10 | CCOC(=O)N1CC2(CC[C@@H](N3CCN(c4cc(F)cnc4-c4cncc(N)c4)CC3)C2)C1 [Compound A174]
 |  | 80 to 100 | > 10 | CCOC(=O)N1CC2(CC[C@@H](N3CCN(c4cc(F)cnc4-c4cc(O)ncc4F)CC3)C2)C1 [Compound A175]
 |  | 80 to 100 | > 10 | CCOC(=O)N1CC2(CC[C@@H](N3CCN(c4cc(F)cnc4-c4ccc5c(c4)nnn5C)CC3)C2)C1 [Compound A176]

Emax (M4 mAChR; cAMP TR-FRET with forskolin) [%] | EC50 ([1]; FLIPR calcium) [µM] | Emax (M4 mAChR; cAMP assay) [%] | EC50 ([1]; FLIPR) [µM] | Compound
 |  | 80 to 100 | > 10 | CCOC(=O)N1CC2(CC[C@@H](N3CCN(c4cc(F)cnc4-c4ccn5ncnc5c4)CC3)C2)C1 [Compound A177]
 |  | 19 to 49.9 | > 10 | CCOC(=O)N1CC2(CC[C@@H](N3CCN(c4cc(F)cnc4-c4cccc5ncnn45)CC3)C2)C1 [Compound A178]
 |  | 80 to 100 | > 10 | CCOC(=O)N1CC2(CC[C@@H](N3CCN(c4cc(F)cnc4-c4cccnc4F)CC3)C2)C1 [Compound A179]
 |  | 80 to 100 | > 10 | CCOC(=O)N1CC2(CC[C@@H](N3CCN(c4cc(F)cnc4-c4ccc(OC)nc4F)CC3)C2)C1 [Compound A180]
 |  | 80 to 100 | > 10 | CCOC(=O)N1CC2(CC[C@@H](N3CCN(c4cc(F)cnc4-c4cncnc4C)CC3)C2)C1 [Compound A181]
 |  | 80 to 100 | > 10 | CCOC(=O)N1CC2(CC[C@@H](N3CCN(c4cc(F)cnc4-c4ccc(C#N)cc4)CC3)C2)C1 [Compound A182]
 |  | 80 to 100 | > 10 | CCOC(=O)N1CC2(CC[C@@H](N3CCN(c4cc(F)cnc4-c4cnc(C5CC5)nc4)CC3)C2)C1 [Compound A183]
 |  | 80 to 100 | > 10 | CCOC(=O)N1CC2(CC[C@@H](N3CCN(c4cc(F)cnc4-c4ccc(C)nc4)CC3)C2)C1 [Compound A186]
 |  | 80 to 100 | > 10 | [2H]C([2H])([2H])n1cc(-c2ncc(F)cc2N2CCN([C@@H]3CCC4(C3)CN(C(=O)OCC)C4)CC2)cn1 [Compound A187]
 |  | 80 to 100 | > 10 | CCOC(=O)N1CC2(CC[C@@H](N3CCN(c4cc(F)cnc4-c4ccc(OC)nc4)CC3)C2)C1 [Compound A188]
 |  | 80 to 100 | > 10 | CCOC(=O)N1CC2(CC[C@@H](N3CCN(c4cc(F)cnc4-c4ccc(OC(F)F)nc4)CC3)C2)C1 [Compound A189]
 |  | 80 to 100 | > 10 | CCOC(=O)N1CC2(CC[C@@H](N3CCN(c4cc(F)cnc4-c4cnn(C)c4)CC3)C2)C1 [Compound A190]
 |  | 50 to 79.9 | > 10 | CCOC(=O)N1CC2(CC[C@@H](N3CCN(c4cc(F)cnc4-c4cnn(C(C)(C)C)c4)CC3)C2)C1 [Compound A191]
 |  | 80 to 100 | > 10 | CCOC(=O)N1CC2(CC[C@@H](N3CCN(c4cc(F)cnc4-c4ccc5c(c4)CN(C)C5=O)CC3)C2)C1 [Compound A192]
 |  | 80 to 100 | > 10 | CCOC(=O)N1CC2(CC[C@@H](N3CCN(c4cc(F)cnc4C4=CCOCC4)CC3)C2)C1 [Compound A193]
 |  | 50 to 79.9 | > 10 | CCOC(=O)N1CC2(CC[C@@H](N3CCN(c4cc(F)cnc4-c4cnn(C(C)C)c4)CC3)C2)C1 [Compound A195]

The next lines start with the compound.

Compound | Emax (M4 mAChR; cAMP TR-FRET with forskolin) [%] | EC50 ([1]; FLIPR calcium) [µM] | Emax (M4 mAChR; cAMP assay) [%] | EC50 ([1]; FLIPR) [µM]
CCOC(=O)N1CC2(CC[C@@H](N3CCN(c4cc(F)cnc4-c4cccc(OC)n4)CC3)C2)C1 [Compound A133] | 19 to 49.9 | > 10 |  | 
CCOC(=O)N1CC2(CC[C@@H](N3CCN(c4cc(F)cnc4-c4ccc(CO)c(C)c4)CC3)C2)C1 [Compound A134] | 80 to 100 | > 10 |  | 
CCOC(=O)N1CC2(CC[C@@H](N3CCN(c4cc(F)cnc4-c4cccc(C)n4)CC3)C2)C1 [Compound A135] | 19 to 49.9 | > 10 |  | 
CCOC(=O)N1CC2(CC[C@@H](N3CCN(c4cc(F)cnc4-c4ccc(O)cc4F)CC3)C2)C1 [Compound A136] | 80 to 100 | > 10 |  | 
CCOC(=O)N1CC2(CC[C@@H](N3CCN(c4cc(F)cnc4-c4ccc(OC)nc4C)CC3)C2)C1 [Compound A137] | 80 to 100 | > 10 |  | 
CCOC(=O)N1CC2(CC[C@@H](N3CCN(c4cc(F)cnc4-c4cncc(COC)c4)CC3)C2)C1 [Compound A138] | 80 to 100 | > 10 |  | 
CCOC(=O)N1CC2(CC[C@@H](N3CCN(c4cc(F)cnc4-c4cc(C)cc(CO)c4)CC3)C2)C1 [Compound A141] | 80 to 100 | > 10 |  | 
CCOC(=O)N1CC2(CC[C@@H](N3CCN(c4cc(F)cnc4-c4cccc(O)c4F)CC3)C2)C1 [Compound A142] | 80 to 100 | > 10 |  | 
CCOC(=O)N1CC2(CC[C@@H](N3CCN(c4cc(F)cnc4-c4cccc(O)n4)CC3)C2)C1 [Compound A143] | 80 to 100 | > 10 |  | 
CCOC(=O)N1CC2(CC[C@@H](N3CCN(c4cc(F)cnc4-c4cc(C)nn4C)CC3)C2)C1 [Compound A144] | 80 to 100 | > 10 |  | 
CCOC(=O)N1CC2(CC[C@@H](N3CCN(c4cc(F)cnc4-c4ccc(OC)cc4CO)CC3)C2)C1 [Compound A145] | 80 to 100 | > 10 |  | 
CCOC(=O)N1CC2(CC[C@@H](N3CCN(c4cc(F)cnc4-c4ccc(F)cc4CO)CC3)C2)C1 [Compound A147] | 80 to 100 | > 10 |  | 
CCOC(=O)N1CC2(CC[C@@H](N3CCN(c4cc(F)cnc4-c4ccc5nc[nH]c5c4)CC3)C2)C1 [Compound A148] |  |  | 80 to 100 | > 10
CCOC(=O)N1CC2(CC[C@@H](N3CCN(c4cc(F)cnc4-c4ccc(C)c(CO)c4)CC3)C2)C1 [Compound A150] |  |  | 50 to 79.9 | > 10
CCOC(=O)N1CC2(CC[C@@H](N3CCN(c4cc(F)cnc4-c4ccc(OC)cc4C#N)CC3)C2)C1 [Compound A152] |  |  | 80 to 100 | > 10
CCOC(=O)N1CC2(CC[C@@H](N3CCN(c4cc(F)cnc4-c4cc(F)ncc4F)CC3)C2)C1 [Compound A153] |  |  | 80 to 100 | > 10
CCOC(=O)N1CC2(CC[C@@H](N3CCN(c4cc(F)cnc4-c4cc(F)cc(CO)c4)CC3)C2)C1 [Compound A154] |  |  | 80 to 100 | > 10
CCOC(=O)N1CC2(CC[C@@H](N3CCN(c4cc(F)cnc4-c4ccc(=O)n(CC)c4)CC3)C2)C1 [Compound A155] |  |  | 80 to 100 | > 10
CCOC(=O)N1CC2(CC[C@@H](N3CCN(c4cc(F)cnc4-c4ccc(F)c(O)c4)CC3)C2)C1 [Compound A156] |  |  | 80 to 100 | > 10
CCOC(=O)N1CC2(CC[C@@H](N3CCN(c4cc(F)cnc4-c4cn(C)nc4C)CC3)C2)C1 [Compound A157] |  |  | 80 to 100 | > 10
CCOC(=O)N1CC2(CC[C@@H](N3CCN(c4cc(F)cnc4-c4ccc5c[nH]nc5c4)CC3)C2)C1 [Compound A159] |  |  | 80 to 100 | > 10

Reference: patent publication US20260098026A1, “M4 ACTIVATORS/MODULATORS AND USES THEREOF” (Cerevel Therapeutics, LLC, priority 2022, published 2026)
